Data taken from patent US9358272B2, “Multicomponent compositions and their uses” (THE ADMINISTRATORS OF THE TULANE EDUCATIONAL FUND, priority 2011, dated 2016).
“Also recorded” adds a separate entry of the source.

Experiments:
osteosarcoma U2OS cells [1] = test: VPA-induced cell morphological change, U2OS cells; format: cell-based, Human
Description: (§1) The cancer cells were inspected and photographed under an inverted light microscope at 10× magnification.

[2] = system: gene expression in pancreatic carcinoid BON cells; test: RT-PCR / real-time PCR gene expression, BON cells; format: cell-based, Human
Description: RT-PCR, Real-Time PCR and PCR Array
Total RNAs were isolated from tumor cells as described in the kit protocol (Invitrogen, Carlsbad, Calif.).
As for real-time PCR, the primers are the same as described in Table 1. Real-time PCR assays were performed on a Bio-Rad iCycler (Hercules Calif.). Assays were set up using iScript™ cDNA Synthesis Kit and iQ™ SYBR Green Supermix (Bio-Rad). The cDNA synthesis was run for one cycle of 25° C. for 5 min, 42° C. for 30 min, 85° C. for 5 min, and held at 4° C. PCR reactions were run in 10 μl reactions. Each 10 μl reaction contained 4 μl template (either cDNA, genomic or plasmid DNA), 5 μl iQ SYBR Green Supermix (BioRad), and 0.25 μM each of the corresponding forward and reverse primers. PCR was further run under the conditions below: one cycle of 95° C. for 5 min for initial denaturation and 40 cycles of 95° C. for 30 s and 56° C. (SST), 57° C. (SSTR2) for 30 s for primer annealing and product elongation. For melt curve data collection and analysis, one cycle of 95° C. for 1 min and 55° C. for 1 min was run with an increase of the temperature at a rate of 0.5° C. from 55° C. to 95° C. The experiments were done by holding at 15° C. β-actin was used as internal control. Results were calculated using the comparative 2^−ΔΔCT methods as described in Livak et al., Methods, 2001, Vol. 25, pp. 402-408.
(§2) RT-PCR was performed on total RNA that was isolated from tumor cells as described in the protocol (Invitrogen, Carlsbad, Calif.). All primers for SST, BN, and PACAP receptors were obtained from previously published reports, such as Sun et al. 2011. The PCR amplification is regularly 35 cycles, with more or less cycles due to the difference in RNA abundance of these investigated genes. Primers used for real-time PCR analyses were identical to those described above. Real-time PCR assays were performed as described in Sun et al 2011. β-actin was used as the internal control and results were calculated by applying 2^−ΔΔCT methods as described above.

Jurkat cells = test: VPA-induced cell morphological change, Jurkat cells; format: cell-based
Description: as §1

[3] = system: ovarian cancer NCI/ADR-RES cells; test: VPA-induced cell morphological change, NCI/ADR-RES cells; format: cell-based
Description: as §1

Leukemia MOLT-4 cells [4] = test: Cell proliferation assay (MTT), MOLT-4 cells; format: cell-based; settings: single agents and combinations
Description: (§3) Cell Proliferation Assay (MTT) The cell proliferation assay (Promega, Madison, Wis.) was performed as described in Sun et al., Bioorg Med Chem Lett, 2004, Vol. 14, pp. 2041-2046. The absorbance was measured and recorded at 570 nm by a Victor Plate Reader (PerkinElmer, Boston, Mass.).

osteosarcoma U2OS cells [5] = test: Cell proliferation assay (MTT), U2OS cells; format: cell-based, Human
Description: as §3

lung cancer A549 cells [6] = test: VPA-induced cell morphological change, A549 cells; format: cell-based
Description: as §1

CNDT2 cells = test: Cell proliferation assay (MTT), CNDT2 cells; format: cell-based; settings: single agents and combinations
Description: as §3

lung cancer A549 cells [7] = test: Cell proliferation assay (MTT), A549 cells; format: cell-based
Description: as §3

[8] = system: prostate cancer DU-145 cells; test: Cell proliferation assay (MTT), DU-145 cells; format: cell-based; settings: single agents and combinations
Description: as §3

SCLC DMS53 cells = test: VPA-induced cell morphological change, DMS53 cells; format: cell-based
Description: as §1

[9] = system: gene expression in MTC TT cells; test: RT-PCR / real-time PCR gene expression, TT cells; format: cell-based
Description: as §2, with “RT-PCR, Real-Time PCR RT-PCR” for “RT-PCR”

[10] = system: pancreatic carcinoid BON tumors; test: In vivo tumor growth and treatment, BON tumors; set-up: species or system nude mice; settings: FIG. 43
Description: In Vivo Tumor Growth and Treatment
All mice were monitored weekly. Tumor volumes were measured at 11 days post-implantation and bodyweights taken once a week. Tumors were weighed and photographed when experiments were over.
After being harvested during exponential growth phase, cells were washed 3 times with ice-cold PBS and then re-suspended in ice-cold PBS at a cell density of 4×10^7 cells/ml. […] Tumor-carrying mice were separated into four groups (n=8-10) for further treatment using s.c. injections that was applied in the flank opposite of the tumors. A control group was injected with PBS, and three tested groups were treated with compounds. One group received conjugate COL-SST (2 mg/kg) and one group received 200 mg/kg of VPA. The last group was treated with 100 mg/kg of VPA in combination with 1 mg/kg of COL-SST. All mice were injected once a day, five times a week. Tumor volumes were measured and bodyweights taken once a week.
After being harvested during their exponential growth phase, cells were washed 3 times with ice-cold PBS and then re-suspended in ice-cold PBS at a cell density of 4×10^7 cells/ml. […] Tumor-carrying mice were separated into four groups (n=8-10) for further treatment using s.c. injections that were applied in the flank opposite to the tumors. […] Tumor volumes were measured and bodyweights taken once a week.

Leukemia MOLT-4 cells [11] = test: VPA-induced cell morphological change, MOLT-4 cells; format: cell-based
Description: as §1

[12] = system: pancreatic carcinoid BON cells; test: VPA-induced cell morphological change, BON cells; format: cell-based, Human
Description: as §1

cancer DU-145 cells = test: VPA-induced cell morphological change, DU-145 cells; format: cell-based
Description: as §1

[13] = system: gene expression in hepatoma HTB-52 cells; test: RT-PCR / real-time PCR gene expression, HTB-52 cells; format: cell-based
Description: as §2, with “RT-PCR, Real-Time PCR RT-PCR” for “RT-PCR”

[14] = system: cervical cancer Hela cells; test: Cell proliferation assay (MTT), cervical cancer Hela cells; format: cell-based, Human; settings: single agents and combinations, VPA 2.5 mM in FIGS. 19, 22
Description: Briefly, fifty μl of medium with or without tested compounds was added to 96-well plates. Another 50 μl of tested cancer cells (1×10^5 cells/ml) suspended in culture medium was dispensed into each well. The plates were incubated at 37° C. for 3 days. Afterward, plates were added with a 15 μl dye solution per well and incubated at 37° C. for 4 hours. To each well was then added 100 μl of the solubilization solution and the plates were incubated at 37° C. again until the contents in each well became a uniformly colored solution. The plates were measured at 570 nm by a Victor Reader (PerkinElmer).
Briefly, 50 μl aliquots of medium with different concentrations of compounds were added to 96-well plates. All compound concentrations were tested in triplicate. Another 50 μl of the cell stock (1×10^5 cells/ml of media) was dispensed into each test well and the plates were incubated at 37° C. in a CO2 incubator for 3 days. Following the incubation period, 15 μl of the dye solution was added to each well and the plates were then incubated at 37° C. for 4 hours, followed by the addition of 100 μl per well of the solubilization solution. The plates were incubated at 37° C. until the contents in each well became a uniform-colored solution. The absorbance was measured and recorded at 570 nm by a Victor Plate Reader.

[15] = system: medullary thyroid cancer (MTC) TT cells; test: Cell proliferation assay (MTT), TT cells; format: cell-based; settings: single agents and combinations
Description: The cell proliferation assay was performed as described previously in Sun et al., Bioorg Med Chem Lett, 2004, Vol. 14, pp. 2041-2046. Briefly, 50 μl aliquots of medium with different concentrations of compounds were added to 96-well plates. All compound concentrations were tested in triplicate. Another 50 μl of the cell stock (1×10^5 cells/ml of media) was dispensed into each test well and the plates were incubated at 37° C. in a CO2 incubator for 3 days. Following the incubation period, 15 μl of the dye solution was added to each well and the plates were then incubated at 37° C. for 4 hours, followed by the addition of 100 μl per well of the solubilization solution. The plates were incubated at 37° C. until the contents in each well became a uniform-colored solution. The absorbance was measured and recorded at 570 nm by a Victor Plate Reader.

[16] = system: gene expression in SCLC DMS-53 cells; test: RT-PCR / real-time PCR gene expression, DMS-53 cells; format: cell-based
Description: as §2, with “RT-PCR, Real-Time PCR RT-PCR” for “RT-PCR”

hepatoma HTB-52 cells = test: VPA-induced cell morphological change, HTB-52 cells; format: cell-based
Description: as §1

[17] = system: ovarian cancer SKOV3 cells; test: Cell proliferation assay (MTT), SKOV3 cells; format: cell-based; settings: single agents and combinations
Description: as §3

[18] = system: ovarian cancer NCI/ADR-RES cells; test: Cell proliferation assay (MTT), NCI/ADR-RES cells; format: cell-based
Description: as §3

[19] = VPA treatment, confirmed by real-time PCR

**Q.** With CCCC(CCC)C(=O)O [VPA, valproic acid] as the compound, how does the “cell morphological change, in words” value (osteosarcoma U2OS cells [1]) read?
**A.** could induce morphological change

**Q.** What about the “effect on expression of Notch receptors (RT-PCR), in words” value (“effect on expression of Notch receptors” below) ([2]; VPA at serial doses, FIG. 52) of the same compound?
**A.** increased the expression of Notch1, Notch2, and Notch3; Notch4 was undetectable

**Q.** What about the “induction of SSTR2 expression” value [2, 19] of the same compound?
**A.** 25 fold

**Q.** What about the “effect on expression of SST, BN and PACAP receptors (RT-PCR), in words” value (“effect on expression of SST” for short) ([2]; VPA treatment, dose-dependent, FIG. 55) of the same compound?
**A.** induced the expression of SSTR2 (25-fold, confirmed by real-time PCR), SSTR4, BRS3, GRPR, and VPAC2 and suppressed SSTR1

**Q.** What about the “slight decrease of SSTR5 expression” value ([2]; VPA treatment, real-time PCR) of the same compound?
**A.** 0.9 fold

**Q.** And the “effect on Notch1, SST, and SSTR2 expression, in words” value ([2]; different concentrations of VPA, beta-actin as control, FIG. 17)?
**A.** activated expression of Notch1, SST, and SSTR2

**Q.** And the “cell morphological change, in words” value (Jurkat cells)?
**A.** no effect

**Q.** And the “cell morphological change, in words” value [3]?
**A.** no effect

**Q.** And the “cell growth suppression (MTT), in words” value (Leukemia MOLT-4 cells [4])?
**A.** displayed its anti-proliferative ability; also recorded: suppressed growth; also recorded: displays its anti-proliferation ability

**Q.** And the “cell growth suppression (MTT), in words” value (osteosarcoma U2OS cells [5])?
**A.** displayed its anti-proliferative ability

**Q.** And the “cell morphological change, in words” value (lung cancer A549 cells [6])?
**A.** no effect

**Q.** What about the “cell growth suppression (MTT), in words” value (CNDT2 cells) of the same compound?
**A.** suppressed growth

**Q.** What about the “cell growth suppression (MTT), in words” value (lung cancer A549 cells [7]) of the same compound?
**A.** little effect; also recorded: not apparent

**Q.** And the “cell growth suppression (MTT), in words” value [8]?
**A.** displayed its anti-proliferative ability; also recorded: displays its anti-proliferation ability

**Q.** And the “cell morphological change, in words” value (SCLC DMS53 cells)?
**A.** no effect

**Q.** And the “effect on expression of Notch receptors” value ([9]; VPA at serial doses, FIG. 52)?
**A.** significantly increase Notch1, Notch2, and Notch3, with a decrease of Notch4 expression

**Q.** What about the “effect on expression of SST” value ([9]; VPA treatment, FIG. 55) of the same compound?
**A.** SSTR2 (2.2-fold, confirmed by real-time PCR), BRS3, NMBR, and VPAC2 increased and SSTR3 and VPAC1 decreased, with no obvious change in the others

**Q.** And the “increase of SSTR2 expression” value [9, 19]?
**A.** 2.2 fold

**Q.** What about the tumor inhibitory rate ([10]; BON tumors in nude mice, VPA at 200 mg/kg s.c. once a day, five times a week) of the same compound?
**A.** 47.9%

**Q.** What about the “suppression of BON tumors, in words” value ([10]; nude mice) of the same compound?
**A.** induced suppression

**Q.** And the “cell morphological change, in words” value (Leukemia MOLT-4 cells [11])?
**A.** no effect

**Q.** What about the “cell morphological change, in words” value [12] of the same compound?
**A.** could induce morphological change

**Q.** And the “cell morphological change, in words” value (cancer DU-145 cells)?
**A.** no effect

**Q.** What about the “effect on expression of Notch receptors” value ([13]; VPA at serial doses, FIG. 52) of the same compound?
**A.** decreased Notch1 and Notch2, whereas Notch3 and Notch4 were undetectable

**Q.** What about the “effect on expression of SST” value ([13]; VPA treatment, FIG. 55) of the same compound?
**A.** increased the expression of SSTR2 (19.8-fold, confirmed by real-time PCR), SSTR3, SSTR5, GRPR, BRS3, and VPAC1

**Q.** And the “increase of SSTR2 expression” value [13, 19]?
**A.** 19.8 fold

**Q.** And the “cell growth suppression (MTT), in words” value [14]?
**A.** displayed growth inhibition; also recorded: suppressed cell proliferation in a dose-dependent manner; also recorded: induced growth arrest; also recorded: suppressed cervical cancer Hela cell growth in a dose-dependent manner

**Q.** What about the “cell growth suppression (MTT), in words” value [15] of the same compound?
**A.** induced growth arrest

**Q.** What about the “effect on expression of SST” value ([16]; DMS53 cells, VPA treatment, FIG. 55) of the same compound?
**A.** SSTR2 (5.4-fold, confirmed by real-time PCR), SSTR3, GRPR, and PAC1 increased, with no obvious change in SSTR1, SSTR2, VPAC1, NMBR, and BRS3

**Q.** What about the “increase of SSTR2 expression” value ([16]; DMS53 cells, VPA treatment, confirmed by real-time PCR) of the same compound?
**A.** 5.4 fold

**Q.** What about the “effect on expression of Notch receptors” value ([16]; DMS-53 cells, VPA at serial doses, FIG. 52) of the same compound?
**A.** increased the expression of Notch1 and Notch2, with no obvious change of expression in the others

**Q.** What about the “VPA-induced Notch1 increase” value ([16]; DMS-53 cells, real-time PCR) of the same compound?
**A.** > 2 fold

**Q.** And the “cell morphological change, in words” value (hepatoma HTB-52 cells)?
**A.** could induce morphological change

**Q.** What about the “cell growth suppression (MTT), in words” value [17] of the same compound?
**A.** displayed its anti-proliferative ability; also recorded: displays its anti-proliferation ability

**Q.** And the “cell growth suppression (MTT), in words” value [18]?
**A.** displayed its anti-proliferative ability; also recorded: displays its anti-proliferation ability
